The source of these data is US20240390429A1, “METHOD AND FORMULATION FOR TREATING RESPIRATORY DISEASES” (ENTEROBIOME INC., priority 2019, published 2024).

Converted amounts (≈) assume the structure as drawn.

Holding throughout (type): cell-based
Test [1] has as its system Bacteroides thetiotaomicron ATCC 29741. In words: MIC by broth microdilution (CLSI), QC strain. In general terms: In broth dilution the organism is exposed to a series of concentrations in liquid medium.
Test [2] relates to Akkermansia muciniphila EB-AMDK19. In words: MIC by broth microdilution (CLSI), isolated strain. The conditions noted are these: for MIC: Akkermansia muciniphila, EBAMDK19, test strain EB-AMDK19, broth microdilution; for Susceptibility category by MIC breakpoints: test strain EB-AMDK19, breakpoints per antibiotic in c1-c3.
Test [3] concerns Akkermansia muciniphila ATCC BAA-835. The test can be described thus: MIC by broth microdilution (CLSI), type strain. The conditions noted are these: for MIC: Akkermansia muciniphila, ATCCBAA835, test strain ATCC BAA-835, broth microdilution; for Susceptibility category by MIC breakpoints: test strain ATCC BAA-835, breakpoints per antibiotic in c1-c3.

As to `O=C(N[C@H](CO)[C@H](O)c1ccc([N+](=O)[O-])cc1)C(Cl)Cl` [CHL, chloramphenicol], the MIC (in general, the smallest concentration in the dilution series that meets the test's criterion for growth inhibition) worked out at 8 µg/mL (≈ 24.8 µM) in test [1] (Bacteroides, ATCC29741); 4 µg/mL (≈ 12.4 µM) in test [2]; 4 µg/mL (≈ 12.4 µM) in test [3]. The “Susceptibility category by MIC breakpoints” value (from here on “Susceptibility category”) in test [2] and in test [3] was “(S)” in each case.
Take `CCC[C@@H]1C[C@@H](C(=O)N[C@@H]([C@H]2O[C@H](SC)[C@H](O)[C@@H](O)[C@H]2O)[C@H](C)Cl)N(C)C1` [CLI, clindamycin]: the MIC is 4 µg/mL (≈ 9.41 µM) in test [2] and ≤ 0.125 µg/mL in test [3]. The results for the “Susceptibility category” value in test [2] and in test [3] were “(I)” and “(S)”, respectively.
Take `CO/N=C(\C(=O)N[C@@H]1C(=O)N2C(C(=O)O)=CCS[C@H]12)c1csc(N)n1` [CTZ, ceftizoxime]: the minimum inhibitory concentration (MIC) in test [1] (Bacteroides, ATCC29741) worked out at 16 µg/mL (≈ 41.7 µM); in test [2] it was 1 µg/mL (≈ 2.61 µM); in test [3] it was 2 µg/mL (≈ 5.22 µM). Moreover, the “Susceptibility category” value in test [2] and in test [3] was “(S)” throughout.
Turning to `C[C@@H](O)[C@H]1C(=O)N2C(C(=O)O)=C(S[C@@H]3CN[C@H](C(=O)N(C)C)C3)[C@H](C)[C@H]12` [MEM, meropenem], the MIC in test [1] (Bacteroides, ATCC29741) stood at 0.5 µg/mL (≈ 1.3 µM); in test [2], 0.5 µg/mL (≈ 1.3 µM); in test [3] it was 1 µg/mL (≈ 2.61 µM). Moreover, the “Susceptibility category” value in test [2] and in test [3] was “(S)” throughout.
For `Cc1ncc([N+](=O)[O-])n1CCO` [MTZ, metronidazole], the MIC in test [1] (Bacteroides, ATCC29741) is 2 µg/mL (≈ 11.7 µM); in test [2], 0.5 µg/mL (≈ 2.92 µM); in test [3], ≤ 0.25 µg/mL. The “Susceptibility category” value in test [2] and in test [3] was “(S)” throughout.
On to `COc1c(N2C[C@@H]3CCCN[C@@H]3C2)c(F)cc2c(=O)c(C(=O)O)cn(C3CC3)c12` [MXF, moxifloxacin], for which the MIC in test [1] (Bacteroides, ATCC29741) is 8 µg/mL (≈ 19.9 µM); in test [2] it was > 32 µg/mL; in test [3], > 32 µg/mL. Besides, the “Susceptibility category” value in test [2] and in test [3] was “(R)” throughout.
Piperacillin-tazobactam [PTZ]: the MIC in test [1] (QC strain ATCC 29741, broth microdilution) was 8/4. The “Susceptibility category” value in test [2] and in test [3] was “(S)” in each case.
